Measurements reported in US20240207427A1, “SELECTIVE DRUG RELEASE FROM INTERNALIZED CONJUGATES OF BIOLOGICALLY ACTIVE COMPOUNDS” (priority 2021, published 2024).
Read-outs that look alike come from different tables or passages of the source.

Key:
Type in all cases: cell-based
[1] = system: renal carcinoma cells (786-O); test: In vitro potency (CellTiter-Glo, 96 h), 786-O; conditions: Homo sapiens, 786-0, 96 h
In short: (§1)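 Growth inhibition after 96 h at 37 °C with test article, measured by luminescence; cells in RPMI 1640, 20% FBS.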

[2] = system: Hodgkin's lymphoma cells (L540cy); test: In vitro potency (CellTiter-Glo, 96 h), L540cy
In short: as §1

[3] = system: anaplastic large cell lymphoma cells (DELBVR); test: In vitro potency (CellTiter-Glo, 96 h), DELBVR
In short: as §1

[4] = system: B-lymphocyte cancer cells (SU-DHL4); test: In vitro potency (CellTiter-Glo, 96 h), SU-DHL-4; conditions: Homo sapiens, SU-DHL-4, 96 h
In short: as §1

[5] = system: breast cancer cells (MDA-MB-231); test: In vitro potency (CellTiter-Glo, 96 h), MDA-MB-231; conditions: Homo sapiens, MDA-MB-231, 96 h
In short: as §1

[6] = system: anaplastic large cell lymphoma cells (Karpas299); test: In vitro potency (CellTiter-Glo, 96 h), Karpas299; conditions: Homo sapiens, KARPAS-299, 96 h
In short: as §1

[7] = system: pancreatic cancer cells (BxPC3); test: In vitro potency (CellTiter-Glo, 96 h), BxPC3; conditions: Homo sapiens, BXPC-3, 96 h
In short: (§2)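 Cells in log-phase growth seeded 24 h in RPMI 1640 with 20% FBS, then exposed to serially diluted ADC or CPT free drug for 96 h at 37 °C. Growth inhibition read by CellTiter-Glo luminescence; IC50 reported in ng/mL or nmol/L.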

[8] = system: anaplastic large cell lymphoma cells (DEL); test: In vitro potency (CellTiter-Glo, 96 h), DEL
In short: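 Log-phase cells were seeded for 24 h in RPMI 1640 with 20% FBS, then exposed to serially diluted antibody-drug conjugates or free camptothecin drug for 4 days at 37 °C. Growth inhibition was read by luminescence, and IC50 values were reported in ng/mL and nmol/L.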

[9] = system: acute myeloid leukemia cells (MOLM-13); test: In vitro potency (CellTiter-Glo, 96 h), MOLM-13; conditions: Homo sapiens, MOLM-13, 96 h
In short: as §2

Ls174T cells = test: In vitro potency (CellTiter-Glo, 96 h), Ls174T; conditions: Homo sapiens, LS174T
In short: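 Medium: RPMI 1640 + 20% FBS. Pre-seeding: 24 h. Treatment: ADC or CPT free drug serial dilutions, 96 h, 37 °C. Read-out: luminescence; IC50 in ng/mL and nmol/L.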

melanoma cells (A2058) = test: In vitro potency (CellTiter-Glo, 96 h), A2058; conditions: Homo sapiens, A2058, 96 h
In short: (§3)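 RPMI 1640/20% FBS cultures, log phase, plated 24 h → ADC titration → 4 d, 37 °C → luminescence → IC50, ng/mL.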

[10] = system: non-small-cell lung cancer cells (Calu1); test: In vitro potency (CellTiter-Glo, 96 h), Calu1; conditions: Homo sapiens, Calu-1, 96 h
In short: as §3

[11] = CPT free drugs, Table 24, CellTiter-Glo after 96 h exposure, read-out: IC50 (nmol/L) 786-O
[12] = CPT free drugs, Table 24, CellTiter-Glo after 96 h exposure, read-out: IC50 (nmol/L) L540cy
[13] = CPT free drugs, Table 24, CellTiter-Glo after 96 h exposure, read-out: IC50 (nmol/L) DELBVR
[14] = CPT free drugs, Table 24, CellTiter-Glo after 96 h exposure, read-out: IC50 (nmol/L) SU-DHL-4
[15] = CPT free drugs, Table 24, CellTiter-Glo after 96 h exposure, read-out: IC50 (nmol/L) MDAMB231
[16] = CPT free drugs, Table 24, CellTiter-Glo after 96 h exposure, read-out: IC50 (nmol/L) Karpas299
[17] = CPT free drugs, Table 24, CellTiter-Glo after 96 h exposure, read-out: IC50 (nmol/L) BxPC3
[18] = CPT free drugs, Table 24, CellTiter-Glo after 96 h exposure, read-out: IC50 (nmol/L) DEL
[19] = CPT free drugs, Table 24, CellTiter-Glo after 96 h exposure, read-out: IC50 (nmol/L) MOLM-13
[20] = CPT free drugs, Table 24, CellTiter-Glo after 96 h exposure, read-out: IC50 (nmol/L) Ls174T
[21] = CPT free drugs, Table 24, CellTiter-Glo after 96 h exposure, read-out: IC50 (nmol/L) A2058
[22] = CPT free drugs, Table 24, CellTiter-Glo after 96 h exposure, read-out: IC50 (nmol/L) Calu1

| SMILES | IC50 [1, 11] | IC50 [2, 12] | IC50 [3, 13] | IC50 [4, 14] | IC50 [5, 15] | IC50 [6, 16] | IC50 [7, 17] | IC50 [8, 18] | IC50 [9, 19] | IC50 (Ls174T cells; [20]) | IC50 (melanoma cells (A2058); [21]) | IC50 [10, 22] | IC50 (melanoma cells (A2058); read-out: A2058 IC50) | IC50 ([10]; read-out: Calu1 IC50) | further results |
| --- | --- | --- | --- | --- | --- | --- | --- | --- | --- | --- | --- | --- | --- | --- | --- |
| CC[C@@]1(O)C(=O)OCc2c1cc1n(c2=O)Cc2c-1nc1cc3c(cc1c2CN)OCO3 [AMDCPT, (5S)-14-(aminomethyl)-5-ethyl-5-hydroxy-7,18,20-trioxa-11,24-diazahexacyclo[11.11.0.02,11.04,9.015,23.017,21]tetracosa-1(13),2,4(9),14,16,21,23-heptaene-6,10-dione, reference compound] | 1.9 nmol/L | 1 nmol/L | 0.8 nmol/L | 1 nmol/L | 1.4 nmol/L | 1.8 nmol/L | 3.6 nmol/L | 0.4 nmol/L | 4.3 nmol/L | 1 nmol/L | 0.7 nmol/L | 14.4 nmol/L |  |  | IC50 ([1]; camptothecin free drug, 96 h, read-out: 786-O IC50): 3 nmol/L; IC50 ([2]; camptothecin free drug, read-out: L540cy IC50): 1 nmol/L; IC50 ([3]; camptothecin free drug, read-out: DELBVR IC50): 1 nmol/L; IC50 ([4]; camptothecin free drug, 96 h, read-out: SU-DHL-4 IC50): 2 nmol/L; IC50 ([5]; camptothecin free drug, 96 h, read-out: MDAMB231 IC50): 21 nmol/L; IC50 ([6]; camptothecin free drug, 96 h, read-out: Karpas299 IC50): 2 nmol/L; IC50 ([7]; camptothecin free drug, 96 h, read-out: BxPC3 IC50): 3 nmol/L; IC50 ([8]; camptothecin free drug, read-out: DEL IC50): 1 nmol/L; IC50 ([9]; camptothecin free drug, 96 h, read-out: MOLM-13 IC50): 20 nmol/L; IC50 (melanoma cells (A2058); camptothecin free drug, 96 h, read-out: A2058 IC50): 3 nmol/L; IC50 ([10]; camptothecin free drug, 96 h, read-out: Calu1 IC50): 52 nmol/L |
| CC[C@@]1(O)C(=O)OCc2c1cc1n(c2=O)Cc2c-1nc1cc(F)c(O)c(F)c1c2CN [Compound 3d] | > 1000 nmol/L | > 1000 nmol/L | > 1000 nmol/L | > 1000 nmol/L | > 1000 nmol/L | > 1000 nmol/L | > 1000 nmol/L | 843 nmol/L | > 1000 nmol/L | > 1000 nmol/L | > 1000 nmol/L | > 1000 nmol/L |  |  |  |
| CC[C@@]1(O)C(=O)OCc2c1cc1n(c2=O)Cc2c-1nc1cc(C)c(C)c(F)c1c2CN [Compound 2o] | 66 nmol/L | 20 nmol/L | 16 nmol/L | 18 nmol/L | 37 nmol/L | 37 nmol/L | > 1000 nmol/L | 10 nmol/L | 349 nmol/L | 19.3 nmol/L | 18 nmol/L | 409 nmol/L |  |  |  |
| CC[C@@]1(O)C(=O)OCc2c1cc1n(c2=O)Cc2c-1nc1cc3c(cc1c2CNCC(O)CN1CCCCC1)OCO3 (some centres unmarked) [Compound 7g] |  |  |  |  |  |  |  |  |  |  |  |  | 8 nmol/L | 486 nmol/L | IC50 ([1]; read-out: 786-O IC50, camptothecin free drug, 96 h): 33 nmol/L; IC50 ([2]; read-out: L540cy IC50, camptothecin free drug, 96 h): 14 nmol/L; IC50 ([3]; read-out: DELBVR IC50, camptothecin free drug, 96 h): 14 nmol/L; IC50 ([4]; read-out: SU-DHL-4 IC50, camptothecin free drug, 96 h): 18 nmol/L; IC50 ([5]; read-out: MDAMB231 IC50, camptothecin free drug, 96 h): 116 nmol/L; IC50 ([6]; read-out: Karpas299 IC50, camptothecin free drug, 96 h): 29 nmol/L; IC50 ([7]; read-out: BxPC3 IC50, camptothecin free drug, 96 h): 29 nmol/L; IC50 ([8]; read-out: DEL IC50, camptothecin free drug, 96 h): 8 nmol/L; IC50 ([9]; read-out: MOLM-13 IC50, camptothecin free drug, 96 h): 56 nmol/L; IC50 (Ls174T cells; 96 h, read-out: Ls174T IC50, camptothecin free drug, 96 h): 18 nmol/L |
| CCc1cc2nc3c(c(CN)c2c(F)c1C)Cn1c-3cc2c(c1=O)COC(=O)[C@]2(O)CC [Compound 2w] | 649 nmol/L | 922 nmol/L | 271 nmol/L | 958 nmol/L | > 1000 nmol/L | > 1000 nmol/L | > 1000 nmol/L | 283 nmol/L | > 1000 nmol/L | 843 nmol/L | 286 nmol/L | > 1000 nmol/L |  |  |  |
| CC[C@@]1(O)C(=O)OCc2c1cc1n(c2=O)Cc2c-1nc1cc3c(cc1c2CN)CCO3 [Compound 2n] |  |  |  |  |  |  |  |  |  |  |  |  | 3 nmol/L | 18 nmol/L | IC50 ([1]; read-out: 786-O IC50, Table 28, CPT free drugs, renal carcinoma cells 786-O, 96 h, CellTiter-Glo): 5 nmol/L; IC50 ([1]; read-out: IC50 (nmol/L) 786-O, CPT free drugs, Table 24, CellTiter-Glo after 96 h exposure): 1 nmol/L; IC50 ([2]; read-out: IC50 (nmol/L) L540cy, CPT free drugs, Table 24, CellTiter-Glo after 96 h exposure): 1 nmol/L; IC50 ([2]; read-out: L540cy IC50, Table 28, CPT free drugs, Hodgkin's lymphoma cells L540cy, CellTiter-Glo): 2 nmol/L; IC50 ([3]; read-out: DELBVR IC50, Table 28, CPT free drugs, anaplastic large cell lymphoma cells DELBVR, CellTiter-Glo): 1 nmol/L; IC50 ([4]; read-out: IC50 (nmol/L) SU-DHL-4, CPT free drugs, Table 24, CellTiter-Glo after 96 h exposure): 1 nmol/L; IC50 ([4]; read-out: SU-DHL-4 IC50, Table 28, CPT free drugs, B-lymphocyte cancer cells SU-DHL4, 96 h, CellTiter-Glo): 1 nmol/L; IC50 ([5]; read-out: IC50 (nmol/L) MDAMB231, CPT free drugs, Table 24, CellTiter-Glo after 96 h exposure): 1 nmol/L; IC50 ([5]; read-out: MDAMB231 IC50, Table 28, CPT free drugs, breast cancer cells MDA-MB-231, 96 h, CellTiter-Glo): 8 nmol/L; IC50 ([6]; read-out: IC50 (nmol/L) Karpas299, CPT free drugs, Table 24, CellTiter-Glo after 96 h exposure): 1 nmol/L; IC50 ([6]; read-out: Karpas299 IC50, Table 28, CPT free drugs, anaplastic large cell lymphoma cells Karpas299, 96 h, CellTiter-Glo): 5 nmol/L; IC50 ([7]; read-out: BxPC3 IC50, Table 28, CPT free drugs, pancreatic cancer cells BxPC3, 96 h, CellTiter-Glo): 3 nmol/L; IC50 ([7]; read-out: IC50 (nmol/L) BxPC3, CPT free drugs, Table 24, CellTiter-Glo after 96 h exposure): 3 nmol/L; IC50 ([8]; read-out: DEL IC50, Table 28, CPT free drugs, anaplastic large cell lymphoma cells DEL, CellTiter-Glo): 1 nmol/L; IC50 ([9]; read-out: IC50 (nmol/L) MOLM-13, CPT free drugs, Table 24, CellTiter-Glo after 96 h exposure): 6 nmol/L; IC50 ([9]; read-out: MOLM-13 IC50, Table 28, CPT free drugs, acute myeloid leukemia cells MOLM-13, 96 h, CellTiter-Glo): 29 nmol/L; IC50 (Ls174T cells; 96 h, read-out: IC50 (nmol/L) Ls174T, CPT free drugs, Table 24, CellTiter-Glo after 96 h exposure): 0.8 nmol/L; IC50 (Ls174T cells; 96 h, read-out: Ls174T IC50, Table 28, CPT free drugs, Ls174T cells, 96 h, CellTiter-Glo): 4 nmol/L; IC50 ([10]; read-out: IC50 (nmol/L) Calu1): 21 nmol/L |
